Experimental data as given in the NIST ThermoML archive (doi:10.1016/j.jct.2016.04.008).

Settings: for mass density: 100 kPa, Buoyancy - hydrostatic balance with magnetic suspension - one sinker

CCCCn1cc[n+](C)c1.F[B-](F)(F)F [1-butyl-3-methylimidazolium tetrafluoroborate]
Liquid
Settings	mass density [kg/m3]
264.16 K	1227.3
268.12 K	1224.12
273.71 K	1219.13
278.76 K	1215.77
283.03 K	1212.73
288.51 K	1208.73
293.06 K	1205.28
298.21 K	1201.97
303.18 K	1198.44
307.95 K	1195.03
313.18 K	1191.08
318.12 K	1187.23
323.27 K	1183.84
328.23 K	1179.81
333.27 K	1176.33
338.88 K	1172.3
343.23 K	1169.53
348.21 K	1166.02
353.25 K	1162.72
358.57 K	1159.04
363.9 K	1155.79

CCCCCCCCCCn1cc[n+](C)c1.F[B-](F)(F)F [1-decyl-3-methylimidazolium tetrafluoroborate]
surface tension liquid-gas [mN/m], Liquid
Settings	Ring tensiometer	Willhelmy plate method
283.21 K	30.74	–
287.98 K	30.53	–
288.03 K	–	30.17
293.33 K	30.27	–
293.46 K	–	29.96
298.21 K	30.11	–
298.28 K	–	29.8
303.14 K	29.86	–
303.2 K	–	29.62
308.05 K	29.66	–
308.07 K	–	29.48
313.12 K	29.45	–
313.16 K	–	29.27
318.14 K	–	29.09
318.22 K	29.18	–
322.9 K	–	28.89
322.91 K	28.87	–
328.39 K	28.69	28.66
333.13 K	–	28.48
333.2 K	28.44	–
338.26 K	–	28.28
338.28 K	28.26	–
343.17 K	28.02	–
343.25 K	–	28.12
348.56 K	–	27.89
348.57 K	27.79	–
353.03 K	–	27.7
353.07 K	27.52	–
357.72 K	–	27.55
357.75 K	27.31	–
363.98 K	27.11	27.32

Liquid
Settings	mass density [kg/m3]
283.26 K	1083.12
288.04 K	1079.26
293.48 K	1075.46
298.32 K	1072.34
303.26 K	1069.35
308.12 K	1064.91
313.23 K	1061.76
318.16 K	1058.04
323.03 K	1054.91
328.43 K	1051.67
333.15 K	1048.43
338.41 K	1044.81
343.37 K	1041.55
348.69 K	1038.22
353.21 K	1034.92
357.87 K	1032.03
363.98 K	1028.48

CCCCCCCCCCCC[n+]1ccn(C)c1.F[B-](F)(F)F [1-dodecyl-3-methylimidazolium tetrafluoroborate]
surface tension liquid-gas [mN/m], Liquid
Settings	Ring tensiometer	Willhelmy plate method
327.2 K	25.89	–
333.17 K	–	25.79
333.2 K	25.61	–
338 K	–	25.54
338.06 K	25.59	–
342.73 K	–	25.4
343.23 K	25.4	–
347.11 K	25.22	25.26
353.61 K	–	25.03
353.66 K	25.11	–
359.02 K	–	24.82
359.84 K	24.78	–
363.47 K	–	24.64
363.69 K	24.63	–

Liquid
Settings	mass density [kg/m3]
328.83 K	1027.93
333.45 K	1024.75
337 K	1022.41
343.4 K	1018.2
347.32 K	1015.89
352.58 K	1012.18
357.71 K	1009
362.85 K	1005.22

CCCCCCCn1cc[n+](C)c1.F[B-](F)(F)F [1-heptyl-3-methylimidazolium tetrafluoroborate]
surface tension liquid-gas [mN/m], Liquid
Settings	Ring tensiometer	Willlhelmy plate method
263.76 K	37.38	–
268.69 K	37.21	–
273.9 K	36.87	–
278.51 K	36.66	–
283.18 K	–	36.23
283.21 K	36.42	–
288.47 K	–	35.98
288.49 K	36.15	–
293.29 K	36.03	35.74
298.21 K	35.76	35.54
303.1 K	35.54	–
303.11 K	–	35.31
308.19 K	–	35.1
308.2 K	35.18	–
313.21 K	34.9	–
313.24 K	–	34.82
317.78 K	34.74	–
317.81 K	–	34.6
323 K	34.45	–
323.06 K	–	34.33
327.79 K	34.24	–
327.8 K	–	34.13
333.01 K	33.87	–
333.09 K	–	33.82
338.61 K	–	33.62
338.64 K	33.54	–
342.42 K	33.44	–
342.5 K	–	33.39
348.76 K	–	33.17
348.79 K	33.17	–
353.93 K	32.8	–
353.99 K	–	32.86
357.12 K	–	32.66
357.16 K	32.47	–
364.34 K	31.97	–
364.4 K	–	32.34

Liquid
Settings	mass density [kg/m3]
263.87 K	1147.27
268.63 K	1143.58
273.63 K	1139.44
278.6 K	1136.36
283.19 K	1133.24
288.51 K	1129.35
293.3 K	1126.02
298.21 K	1122.73
303.11 K	1119.42
308.22 K	1115.86
313.23 K	1112.13
317.78 K	1108.94
322.97 K	1105.52
327.81 K	1102.47
333.04 K	1098.48
338.46 K	1095.77
342.6 K	1092.48
348.77 K	1089.11
353.97 K	1085.93
357.24 K	1082.94
364.28 K	1078.73

CCCCCn1cc[n+](C)c1.F[B-](F)(F)F [1-methyl-3-pentyl-imidazolium tetrafluoroborate]
Liquid
Settings	mass density [kg/m3]
263.11 K	1196.7
268.47 K	1193.07
273.58 K	1189.42
278.77 K	1185.81
283.09 K	1182.43
288.3 K	1178.63
292.92 K	1175.26
298.19 K	1171.74
303.03 K	1168.37
308.1 K	1164.61
313 K	1161.19
318.13 K	1157.51
323.84 K	1154.03
328.48 K	1150.65
333.48 K	1147.02
338.25 K	1143.81
342.51 K	1140.95
348.51 K	1137.46
354.03 K	1133.59
358.73 K	1130.69
365.22 K	1126.55

surface tension liquid-gas [mN/m], Liquid
Settings	Ring tensiometer	Willhelmy plate method
263.64 K	43.08	–
269.34 K	42.79	–
273.78 K	42.67	–
278.75 K	42.24	–
283.06 K	–	41.81
283.1 K	42.19	–
288.31 K	41.94	41.58
292.93 K	–	41.36
292.94 K	41.69	–
298.2 K	41.4	41.1
303.06 K	–	40.86
303.07 K	41.17	–
308.07 K	40.88	–
308.1 K	–	40.6
313.01 K	40.64	–
313.04 K	–	40.36
318.12 K	40.35	–
318.17 K	–	40.07
323.56 K	40.02	–
323.62 K	–	39.72
328.29 K	39.81	–
328.31 K	–	39.45
333.1 K	–	39.18
333.29 K	39.49	–
338.23 K	39.13	38.94
342.51 K	38.95	–
342.52 K	–	38.68
348.1 K	38.54	–
348.11 K	–	38.42
353.72 K	38.21	–
353.84 K	–	38.09
358.24 K	38.16	–
358.37 K	–	37.87
364.6 K	37.6	–
364.61 K	–	37.57

CCCCCCCCCn1cc[n+](C)c1.F[B-](F)(F)F [1-nonyl-3-methylimidazolium tetrafluoroborate]
Liquid
Settings	mass density [kg/m3]
269.37 K	1108.1
274.7 K	1104.14
278.49 K	1101.14
283.7 K	1097.76
288.38 K	1094.04
293.34 K	1090.55
298.3 K	1087.19
303.16 K	1084.03
308.11 K	1080.68
313.07 K	1077.08
317.8 K	1073.8
322.89 K	1070.47
328.78 K	1067.01
333.51 K	1063.61
338.65 K	1060.05
342.35 K	1057.5
348.22 K	1053.82
352.72 K	1050.55
357.94 K	1047.5
363.54 K	1043.86

surface tension liquid-gas [mN/m], Liquid
Settings	Ring tensiometer	Willhelmy plate method
269.49 K	33.05	–
274.62 K	32.75	–
278.42 K	32.6	–
283.61 K	–	32.09
283.73 K	32.33	–
288.37 K	–	31.88
288.41 K	32.14	–
293.36 K	31.82	31.67
298.28 K	31.59	–
298.31 K	–	31.45
303.11 K	31.38	–
303.12 K	–	31.29
308.07 K	31.2	–
308.11 K	–	31.1
313.04 K	30.9	–
313.06 K	–	30.81
317.79 K	30.65	–
317.83 K	–	30.66
322.85 K	30.43	–
322.9 K	–	30.39
328.72 K	30.17	–
328.74 K	–	30.12
333.58 K	29.92	29.92
338.63 K	29.71	–
338.67 K	–	29.67
342.37 K	29.49	–
342.48 K	–	29.52
348.12 K	–	29.3
348.21 K	29.22	–
352.1 K	29.02	–
353.08 K	–	29.07
357.88 K	28.83	–
357.99 K	–	28.86
363.56 K	28.58	–
363.61 K	–	28.61

CCCn1cc[n+](C)c1.F[B-](F)(F)F [1-propyl-3-methylimidazolium tetrafluoroborate]
Metastable liquid
Settings	mass density [kg/m3]
263.48 K	1263.82
267.76 K	1260.36
273.92 K	1255.4
278.64 K	1251.98
283.36 K	1248.34
288.62 K	1245.07
293.07 K	1241.48
298.18 K	1237.91
303.09 K	1234.13
308.11 K	1230.24
313.13 K	1226.49
318 K	1222.86
322.91 K	1219.26
328.37 K	1215.54
333.47 K	1211.69
337.99 K	1208.71
342.79 K	1205.15
348.01 K	1201.38
353 K	1198.22
359.33 K	1194.13
363.9 K	1190.61

surface tension liquid-gas [mN/m], Metastable liquid
Settings	Ring tensiometer	Willhelmy plate method
273.75 K	–	50.71
273.79 K	51.33	–
278.5 K	–	50.51
278.59 K	51.07	–
283.29 K	–	50.25
283.35 K	50.8	–
288.51 K	–	49.99
288.6 K	50.51	–
293.05 K	–	49.65
293.08 K	50.23	–
298.18 K	49.96	–
298.19 K	–	49.5
303.09 K	49.6	49.11
308.05 K	–	48.73
308.08 K	49.16	–
313.06 K	–	48.58
313.09 K	49.02	–
318 K	48.72	48.32
322.85 K	–	47.95
322.87 K	48.32	–
328.24 K	–	47.64
328.31 K	47.95	–
333.32 K	–	47.28
333.5 K	47.54	–
338.08 K	–	47.1
338.14 K	47.43	–
342.74 K	–	46.86
342.81 K	46.8	–
348.07 K	46.79	–
348.15 K	–	46.48
353.02 K	46.07	–
353.21 K	–	46.16
358.98 K	45.94	–
359.05 K	–	45.89
362.96 K	–	45.51
363.8 K	45.67	–
